The record followed here is patent US10004732B2 (Novartis AG, priority 2014, dated 2018).

SMILES strings stand for the structures. Bounds are passed on as bounds.

Series [1] addresses T1, PI 3-kinase alpha (Homo sapiens, UniProt P42336). Kind of series: Kinase Glo Luminescent Kinase Assay (Kglo), assay A. As to conditions: read-out: Assay A PI3Kα IC50. Format: biochemical.
Series [2] can be described thus: Microsomal clearance assay (M). As to conditions: intrinsic clearance in rat liver microsomes.
Procedure: The experiments were performed in 96-well glass plates at 37° C. on an automated Tecan EVO platform. Test compounds at a concentration of 10 mM in pure DMSO were diluted 1:1000 in water to 10 μM. […] Reactions were initiated by the addition of 150 μL of a cofactor solution containing 2 mM NADPH.
Series [3] deals with T2, PI 3-kinase gamma (Homo sapiens, UniProt P48736). Kind of series: TR-FRET Adapta assay, assay E. In kind it is biochemical. As to conditions: read-out: Assay E PI3Kγ IC50.
In series [4] the target is T2, PI 3-kinase gamma. In words: Cellular U937 AKT assay K1 (MSD). In kind it is cell-based. As to conditions: U937 cells, K1 format; read-out: Assay K1 PI3Kγ IC50.
Series [5] concerns the target T2, PI 3-kinase gamma. In words: Cellular U937 AKT assay K2 (HTRF). As to conditions: U937 cells, K2 format; read-out: Assay K2 PI3Kγ IC50. In kind it is cell-based.
Procedure: In assays K1 and K2, the compounds were tested for their ability to inhibit the production of phosphorylated AKT (Protein Kinase B) generated in a PI 3-kinase gamma isoform-dependent process in a U937 human cell line.
Cellular U937 AKT Assay for PI 3-Kinase Gamma (K2)
U937 cells are split every 3-4 days: 5×10^6 cells/flask (175 cm^2) in 40 ml.
Semi-automated preparation of cell lysates: Cells were resuspended in HBSS, seeded (200′000 cells/well/60 μl) into a 384-well plate and incubated in a humidified 37° C., 5% CO2 incubator for 1.5 hours. The compounds were diluted with HBSS and 40 μl were added to the starved cells (except for wells 24 I-P). […] The cells were then incubated for 30 minutes at 37° C. and 5% CO2. Stimulation occurred during 3 minutes by addition of 20 μl MIP1α (final 10 ng/ml, diluted in HBSS) in the incubator. Wells 24 A-H were only stimulated with HBSS.
The stimulation was then stopped by putting the cell plates on ice (filled with cold water). The cells were then centrifuged at 1200 rpm and 4° C. for 3 minutes.
80 μl of supernatant was removed. The cells were again centrifuged at 1200 rpm and 4° C. for 3 minutes. The supernatant was then removed by turning plates upside down and 30 μl of lysis buffer were added. The plate was incubated at room temperature for 30 minutes under shaking. 16 μl were then transferred to a ProxiPlate Plus 384-well. 4 μl of the master mix (each conjugate diluted 1:20 with detection reagent) were added to each well and the plate was kept in the dark at room temperature for 4 hours.
Series [6] addresses T3, PI 3-kinase delta (Homo sapiens, UniProt O00329). In words: TR-FRET Adapta assay, assay F.
Target sequence in this assay (O00329 whole entry): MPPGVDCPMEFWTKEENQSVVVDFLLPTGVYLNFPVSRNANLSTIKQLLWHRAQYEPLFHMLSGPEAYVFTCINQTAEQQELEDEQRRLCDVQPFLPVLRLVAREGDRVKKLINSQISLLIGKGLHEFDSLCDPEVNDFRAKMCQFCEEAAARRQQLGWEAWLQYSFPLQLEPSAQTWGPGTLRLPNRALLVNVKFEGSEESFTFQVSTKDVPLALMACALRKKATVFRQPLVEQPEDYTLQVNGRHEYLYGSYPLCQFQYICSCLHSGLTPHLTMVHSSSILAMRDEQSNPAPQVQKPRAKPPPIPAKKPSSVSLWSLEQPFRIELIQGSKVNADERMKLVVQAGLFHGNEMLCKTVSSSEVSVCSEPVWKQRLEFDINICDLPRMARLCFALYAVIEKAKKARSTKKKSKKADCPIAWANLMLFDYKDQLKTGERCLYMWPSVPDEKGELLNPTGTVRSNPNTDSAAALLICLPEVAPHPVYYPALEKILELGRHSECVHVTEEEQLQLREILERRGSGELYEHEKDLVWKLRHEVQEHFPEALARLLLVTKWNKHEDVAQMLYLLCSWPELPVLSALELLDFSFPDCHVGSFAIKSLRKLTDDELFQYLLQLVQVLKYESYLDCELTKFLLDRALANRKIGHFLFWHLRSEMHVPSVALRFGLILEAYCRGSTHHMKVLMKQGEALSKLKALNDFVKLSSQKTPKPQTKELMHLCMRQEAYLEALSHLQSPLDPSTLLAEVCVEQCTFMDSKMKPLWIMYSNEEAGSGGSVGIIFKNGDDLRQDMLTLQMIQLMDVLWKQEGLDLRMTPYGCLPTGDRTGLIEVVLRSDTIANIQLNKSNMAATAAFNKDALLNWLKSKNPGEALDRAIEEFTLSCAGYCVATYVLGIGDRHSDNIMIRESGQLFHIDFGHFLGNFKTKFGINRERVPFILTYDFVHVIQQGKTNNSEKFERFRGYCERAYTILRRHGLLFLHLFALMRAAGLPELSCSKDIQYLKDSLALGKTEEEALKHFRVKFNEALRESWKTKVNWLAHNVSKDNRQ
Target sequence in this assay (P27986 461-568 partner): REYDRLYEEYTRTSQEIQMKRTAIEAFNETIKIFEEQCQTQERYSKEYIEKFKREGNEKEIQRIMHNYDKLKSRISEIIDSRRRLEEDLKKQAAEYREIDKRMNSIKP
A further series deals with mTOR (Homo sapiens, UniProt P42345). Kind of series: Lanthascreen kinase binding assay, assay G. As to conditions: read-out: Assay G mTOR IC50.
For another series, the target named is PI 4-kinase beta (Homo sapiens, UniProt Q9UBF8). Kind of series: Kinase Glo Luminescent Kinase Assay (Kglo), assay D. Format: biochemical. As to conditions: read-out: Assay D PI4Kβ IC50.
Sequence of PI 4-kinase beta (Q9UBF8 whole entry): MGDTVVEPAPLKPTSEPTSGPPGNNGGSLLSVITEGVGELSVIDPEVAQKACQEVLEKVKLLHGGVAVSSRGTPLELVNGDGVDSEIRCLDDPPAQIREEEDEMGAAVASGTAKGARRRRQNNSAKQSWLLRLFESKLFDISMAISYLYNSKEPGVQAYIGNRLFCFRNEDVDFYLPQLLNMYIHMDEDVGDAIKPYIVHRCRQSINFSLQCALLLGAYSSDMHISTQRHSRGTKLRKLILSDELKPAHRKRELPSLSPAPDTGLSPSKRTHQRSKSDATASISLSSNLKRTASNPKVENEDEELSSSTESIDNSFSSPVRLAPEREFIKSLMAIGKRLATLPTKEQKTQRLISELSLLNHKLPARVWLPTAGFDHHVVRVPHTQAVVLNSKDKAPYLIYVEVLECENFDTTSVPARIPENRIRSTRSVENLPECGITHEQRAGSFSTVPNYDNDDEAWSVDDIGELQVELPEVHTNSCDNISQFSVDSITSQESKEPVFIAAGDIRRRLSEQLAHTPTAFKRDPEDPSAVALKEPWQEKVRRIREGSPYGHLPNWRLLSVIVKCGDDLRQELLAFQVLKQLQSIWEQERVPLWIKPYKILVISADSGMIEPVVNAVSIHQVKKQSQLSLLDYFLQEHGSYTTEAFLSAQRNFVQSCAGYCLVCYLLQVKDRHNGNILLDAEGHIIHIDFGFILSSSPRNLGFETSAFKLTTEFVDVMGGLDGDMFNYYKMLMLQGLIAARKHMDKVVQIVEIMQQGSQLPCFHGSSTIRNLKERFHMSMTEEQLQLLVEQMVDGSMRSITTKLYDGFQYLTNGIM
Series [7] concerns the target T4, PI 3-kinase beta (Homo sapiens, UniProt P42338). In words: Kinase Glo Luminescent Kinase Assay (Kglo), assay B. Format: biochemical. As to conditions: read-out: Assay B PI3Kβ IC50.
Target sequence in this assay (P42338 whole entry): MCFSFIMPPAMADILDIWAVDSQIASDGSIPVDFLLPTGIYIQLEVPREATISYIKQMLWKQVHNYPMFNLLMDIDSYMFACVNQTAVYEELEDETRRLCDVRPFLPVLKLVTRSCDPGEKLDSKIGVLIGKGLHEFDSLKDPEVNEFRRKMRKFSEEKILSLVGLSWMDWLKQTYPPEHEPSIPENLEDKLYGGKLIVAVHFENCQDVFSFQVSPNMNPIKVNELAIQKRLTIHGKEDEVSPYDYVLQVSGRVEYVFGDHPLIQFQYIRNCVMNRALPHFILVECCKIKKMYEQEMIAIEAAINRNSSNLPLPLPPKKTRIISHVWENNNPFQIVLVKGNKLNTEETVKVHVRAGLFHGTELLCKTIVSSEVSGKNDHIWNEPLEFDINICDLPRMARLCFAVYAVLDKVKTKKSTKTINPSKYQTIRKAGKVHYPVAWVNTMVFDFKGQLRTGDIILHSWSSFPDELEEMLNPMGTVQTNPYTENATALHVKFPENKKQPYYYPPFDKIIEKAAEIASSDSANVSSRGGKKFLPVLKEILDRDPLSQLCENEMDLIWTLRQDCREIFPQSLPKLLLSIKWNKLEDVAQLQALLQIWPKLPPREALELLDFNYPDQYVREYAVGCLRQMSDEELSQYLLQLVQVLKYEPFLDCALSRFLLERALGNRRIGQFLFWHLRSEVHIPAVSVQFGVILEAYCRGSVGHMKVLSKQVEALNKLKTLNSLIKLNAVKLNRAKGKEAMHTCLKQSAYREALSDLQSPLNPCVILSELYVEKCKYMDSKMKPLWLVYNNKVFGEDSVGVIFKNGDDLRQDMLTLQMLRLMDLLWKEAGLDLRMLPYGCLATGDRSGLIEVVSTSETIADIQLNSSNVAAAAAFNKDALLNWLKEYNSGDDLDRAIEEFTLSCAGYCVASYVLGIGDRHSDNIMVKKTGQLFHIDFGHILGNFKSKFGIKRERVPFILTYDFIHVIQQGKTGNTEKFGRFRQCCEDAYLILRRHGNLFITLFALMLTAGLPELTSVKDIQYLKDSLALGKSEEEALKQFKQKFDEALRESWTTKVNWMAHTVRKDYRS
Target sequence in this assay (P27986 461-568 partner): as the sequence (P27986 461-568 partner) above
The target of a further series is Vps34 (Homo sapiens, UniProt Q8NEB9). Kind of series: Kinase Glo Luminescent Kinase Assay (Kglo), assay C. As to conditions: read-out: Assay C VPS34 IC50. In kind it is biochemical.
Sequence of Vps34 (Q8NEB9 whole entry, species assumed): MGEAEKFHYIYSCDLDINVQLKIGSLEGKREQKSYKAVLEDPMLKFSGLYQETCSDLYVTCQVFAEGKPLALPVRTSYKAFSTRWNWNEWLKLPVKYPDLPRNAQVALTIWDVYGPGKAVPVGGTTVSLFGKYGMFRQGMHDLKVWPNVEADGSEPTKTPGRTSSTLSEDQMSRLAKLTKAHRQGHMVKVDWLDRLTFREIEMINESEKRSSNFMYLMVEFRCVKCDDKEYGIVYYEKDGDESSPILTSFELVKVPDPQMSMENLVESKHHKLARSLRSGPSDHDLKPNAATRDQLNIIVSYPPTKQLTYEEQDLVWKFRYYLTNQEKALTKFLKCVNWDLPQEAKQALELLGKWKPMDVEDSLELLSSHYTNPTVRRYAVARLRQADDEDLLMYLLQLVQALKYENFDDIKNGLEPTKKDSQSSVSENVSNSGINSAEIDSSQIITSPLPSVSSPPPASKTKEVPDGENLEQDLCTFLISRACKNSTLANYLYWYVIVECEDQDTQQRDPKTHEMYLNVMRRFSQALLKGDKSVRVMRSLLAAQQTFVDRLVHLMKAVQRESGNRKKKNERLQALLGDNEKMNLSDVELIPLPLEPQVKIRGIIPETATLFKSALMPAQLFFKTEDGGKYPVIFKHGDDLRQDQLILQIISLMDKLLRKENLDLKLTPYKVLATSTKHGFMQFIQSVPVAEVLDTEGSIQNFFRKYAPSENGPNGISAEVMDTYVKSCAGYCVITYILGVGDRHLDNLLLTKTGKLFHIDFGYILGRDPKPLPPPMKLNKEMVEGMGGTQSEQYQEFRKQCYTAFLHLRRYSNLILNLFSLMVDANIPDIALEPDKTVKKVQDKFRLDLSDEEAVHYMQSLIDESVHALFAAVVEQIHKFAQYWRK
Series [8] deals with T3, PI 3-kinase delta. Kind of series: Cellular assay J1, p-Akt (S473) in Rat-1 cells, Surefire format. In kind it is cell-based. As to conditions: non-asterisked data: version J1 (Surefire format), Rat-1 cells; read-out: Assay J PI3Kδ IC50.
Target sequence in this assay (O00329 whole entry): as the sequence (O00329 whole entry) above
Target sequence in this assay (Q63787 whole entry partner): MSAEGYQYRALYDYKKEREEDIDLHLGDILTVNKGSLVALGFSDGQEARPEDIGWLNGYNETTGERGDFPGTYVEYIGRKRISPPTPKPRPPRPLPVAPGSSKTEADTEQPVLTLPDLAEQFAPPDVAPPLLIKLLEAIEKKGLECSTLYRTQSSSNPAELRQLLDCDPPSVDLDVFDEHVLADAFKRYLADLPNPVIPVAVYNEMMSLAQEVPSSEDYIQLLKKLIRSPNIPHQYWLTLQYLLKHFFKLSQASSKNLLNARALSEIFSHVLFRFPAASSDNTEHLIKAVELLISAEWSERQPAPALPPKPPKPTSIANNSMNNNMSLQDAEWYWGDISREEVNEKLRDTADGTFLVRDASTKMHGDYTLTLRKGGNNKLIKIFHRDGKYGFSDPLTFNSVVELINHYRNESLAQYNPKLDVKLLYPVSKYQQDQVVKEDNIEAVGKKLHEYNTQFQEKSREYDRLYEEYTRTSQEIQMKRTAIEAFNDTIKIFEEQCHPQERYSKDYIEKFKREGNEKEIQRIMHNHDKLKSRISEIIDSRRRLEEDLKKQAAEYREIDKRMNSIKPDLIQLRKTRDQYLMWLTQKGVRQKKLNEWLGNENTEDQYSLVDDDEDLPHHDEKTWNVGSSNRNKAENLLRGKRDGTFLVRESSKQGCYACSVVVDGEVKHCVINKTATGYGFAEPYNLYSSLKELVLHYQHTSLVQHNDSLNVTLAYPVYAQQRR
Series [9] has as its target T4, PI 3-kinase beta. Kind of series: Cellular assay I1, p-Akt (S473) in Rat-1 cells, Surefire format. In kind it is cell-based. As to conditions: non-asterisked data: version I1 (Surefire format), Rat-1 cells; read-out: Assay I PI3Kβ IC50.
Target sequence in this assay (P42338 whole entry): as the sequence (P42338 whole entry) above
Target sequence in this assay (Q63787 whole entry partner): as the sequence (Q63787 whole entry partner) above
The target in series [10] is T1, PI 3-kinase alpha. In words: Cellular assay H1, p-Akt (S473) in Rat-1 cells, Surefire format. In kind it is cell-based. As to conditions: non-asterisked data: version H1 (Surefire format), Rat-1 cells; read-out: Assay H PI3Kα IC50.
In series [11] the test system is IL-8-induced neutrophil shape change in human whole blood. Kind of series: Whole blood neutrophil shape change assay (L). Format: cell-based. As to conditions: Homo sapiens, Neutrophil, IL-8, human whole blood, read-out: Assay L WBSC IC50.

Procedure for mTOR: Lanthascreen™ Kinase Binding Assay for mTOR (G)
Binding of an inhibitor to the kinase competes for binding with the tracer, resulting in a loss of FRET.
50 nL of compound dilutions were dispensed onto white 384-well small volume polystyrene plate.

With `Cc1ccc(S(=O)(=O)NCC(C)(C)O)cc1-c1cnc(N)c(-c2ccoc2)n1` [Example 39, 3-(5-Amino-6-(furan-3-yl)pyrazin-2-yl)-N-(2-hydroxy-2-methylpropyl)-4-methylbenzenesulfonamide], the concentration for half-maximal inhibition (IC50) is 790 nM at PI 3-kinase alpha [1]; 67 nM at PI 3-kinase gamma [3]; 192 nM at PI 3-kinase gamma [4]; 999 nM at PI 3-kinase gamma [5]; 1070 nM on PI 3-kinase delta [6] (read-out: Assay F PI3Kδ IC50); more than 9550 nM at mTOR. In addition, the IC50 on PI 4-kinase beta was 7050 nM; at PI 3-kinase beta [7], 3950 nM; on Vps34, more than 9550 nM. For the same compound, the “Assay M RLM CI(int)” value in series [2] stood at 88 µL/min/mg.
Take `Cc1ncc(-c2nc(-c3cc(S(=O)(=O)NC4CCOCC4)ccc3C)cnc2N)s1` [Example 45.3, 3-(5-Amino-6-(2-methylthiazol-5-yl)pyrazin-2-yl)-4-methyl-N-(tetrahydro-2H-pyran-4-yl)benzenesulfonamide]: the half-inhibitory concentration (IC50) on PI 3-kinase alpha [1] amounted to 40 nM; on PI 3-kinase gamma [3] it was 13 nM; at PI 3-kinase gamma [5] it was 494 nM; at PI 3-kinase delta [6] (read-out: Assay F PI3Kδ IC50), 100 nM; on PI 4-kinase beta, 1600 nM; at PI 3-kinase beta [7] it was 240 nM. Besides, at Vps34, the IC50 is 1600 nM. Also, the “Assay M RLM CI(int)” value in series [2] is 78 µL/min/mg.
With `Cc1ncc(-c2nc(-c3cc(S(=O)(=O)N4CC(CO)C4)ccc3C)cnc2N)s1` [Example 45.8, (1-((3-(5-Amino-6-(2-methylthiazol-5-yl)pyrazin-2-yl)-4-methylphenyl)sulfonyl)azetidin-3-yl)methanol], the IC50 at PI 3-kinase alpha [1] came out at 90 nM; on PI 3-kinase gamma [3], 130 nM; on PI 3-kinase gamma [5] it was 317 nM; on PI 3-kinase delta [6] (read-out: Assay F PI3Kδ IC50) it was 320 nM; at PI 4-kinase beta, 3300 nM; on PI 3-kinase beta [7], 590 nM. For the same compound, the IC50 on Vps34 stood at 2000 nM. Also, in series [2], the “Assay M RLM CI(int)” value is 67 µL/min/mg.
`COC1(C)CN(S(=O)(=O)c2ccc(C)c(-c3cnc(N)c(-c4cn(C)nc4C)n3)c2)C1` [Example 102, 3-(1,3-Dimethyl-1H-pyrazol-4-yl)-5-(5-(3-methoxy-3-methylazetidin-1-ylsulfonyl)-2-methylphenyl)pyrazin-2-amine]: the IC50 on PI 3-kinase delta [8] came out at 1330 nM; at PI 3-kinase alpha [1], 550 nM; at PI 3-kinase gamma [3], 150 nM; at PI 3-kinase gamma [5], 211 nM; on PI 3-kinase delta [6] (read-out: Assay F PI3Kδ IC50), 900 nM; at PI 3-kinase beta [9], 5300 nM. Besides, the half-inhibitory concentration (IC50) on mTOR was 2900 nM; on PI 4-kinase beta, 5900 nM; on PI 3-kinase beta [7] it was 1800 nM; on PI 3-kinase alpha [10], 4530 nM; on Vps34 it was more than 10000 nM. In addition, the “Assay M RLM CI(int)” value in [2] was 75 µL/min/mg.
Consider `Cc1ccc(S(=O)(=O)N2CC(F)(F)C2)cc1-c1cnc(N)c(-n2cncn2)n1` [Example 127.4], for which the concentration for half-maximal inhibition (IC50) at PI 3-kinase alpha [1] was 2550 nM; at PI 3-kinase gamma [3] it was 260 nM; at PI 3-kinase gamma [4], 1970 nM; at PI 3-kinase gamma [5], 1490 nM; on PI 3-kinase delta [6] (read-out: Assay F PI3Kδ IC50) it was 2500 nM; at mTOR, more than 9550 nM. Also, the concentration for half-maximal inhibition (IC50) on PI 4-kinase beta was 4200 nM; at PI 3-kinase beta [7], 6550 nM; on Vps34, more than 9550 nM. Also, the “Assay M RLM CI(int)” value in series [2] is 85 µL/min/mg.
`CCN1CCC[C@H]1CNS(=O)(=O)c1ccc(C)c(-c2cnc(N)c(-c3cn(C)nc3C)n2)c1` [Example 128.1, (S)-3-(5-Amino-6-(1,3-dimethyl-1H-pyrazol-4-yl)pyrazin-2-yl)-N-((1-ethylpyrrolidin-2-yl)methyl)-4-methylbenzenesulfonamide]: the half-inhibitory concentration (IC50) is 1640 nM at PI 3-kinase delta [8]; 1000 nM on PI 3-kinase alpha [1]; 332 nM on PI 3-kinase gamma [5]; 250 nM at PI 3-kinase delta [6] (read-out: Assay F PI3Kδ IC50); more than 10000 nM on PI 3-kinase beta [9]; more than 10000 nM on PI 4-kinase beta. In addition, the IC50 was 3000 nM on PI 3-kinase beta [7], more than 10000 nM at PI 3-kinase alpha [10] and more than 10000 nM at Vps34.
As for `Cc1cc(-c2nc(-c3cc(S(=O)(=O)NCC4(O)COC4)ccc3C)cnc2N)ccn1` [Example 129.32, 3-(5-amino-6-(2-methylpyridin-4-yl)pyrazin-2-yl)-N-((3-hydroxyoxetan-3-yl)methyl)-4-methylbenzenesulfonamide], the IC50 on PI 3-kinase delta [8] is more than 10000 nM; on PI 3-kinase alpha [1] it was 2000 nM; at PI 3-kinase gamma [3], 39 nM; at PI 3-kinase gamma [4], 800 nM; on PI 3-kinase delta [6] (read-out: Assay F PI3Kδ IC50) it was 1800 nM; at PI 3-kinase beta [9], more than 10000 nM. Moreover, the IC50 was more than 9100 nM at mTOR; more than 9100 nM at PI 4-kinase beta; 2000 nM in series [11]; 7000 nM on PI 3-kinase beta [7]; more than 10000 nM at PI 3-kinase alpha [10]; more than 9100 nM at Vps34. Besides, the “Assay M RLM CI(int)” value in series [2] worked out at 18 µL/min/mg.
As to `Cc1cc(-c2nc(-c3cc(S(=O)(=O)NC[C@@H]4CCNC4)ccc3C)cnc2N)ccn1` [Example 129.35, (R)-3-(5-amino-6-(2-methylpyridin-4-yl)pyrazin-2-yl)-4-methyl-N-(pyrrolidin-3-ylmethyl)benzenesulfonamide], the concentration for half-maximal inhibition (IC50) on PI 3-kinase alpha [1] was 2100 nM; at PI 3-kinase gamma [3] it was 89 nM; on PI 3-kinase gamma [5], more than 10000 nM; on PI 3-kinase delta [6] (read-out: Assay F PI3Kδ IC50) it was 1200 nM; on mTOR, more than 9100 nM; on PI 4-kinase beta, more than 9100 nM. Further, the 50% inhibitory concentration (IC50) at PI 3-kinase beta [7] and at Vps34 was more than 9100 nM in each case.
As for `Cc1ccc(S(=O)(=O)NCCC(C)(C)O)cc1-c1cnc(N)c(-c2cnn(CC(F)(F)F)c2)n1` [Example 130, 3-(5-Amino-6-(1-(2,2,2-trifluoroethyl)-1H-pyrazol-4-yl)pyrazin-2-yl)-N-(3-hydroxy-3-methylbutyl)-4-methylbenzenesulfonamide], the IC50 at PI 3-kinase delta [8] is 1200 nM; on PI 3-kinase alpha [1], 150 nM; on PI 3-kinase gamma [3] it was 12 nM; at PI 3-kinase gamma [4] it was 65 nM; at PI 3-kinase delta [6] (read-out: Assay F PI3Kδ IC50) it was 180 nM; on PI 3-kinase beta [9] it was 4520 nM. The IC50 is 5110 nM on mTOR; 7010 nM at PI 4-kinase beta; 735 nM in series [11]; 2830 nM on PI 3-kinase beta [7]; 1630 nM on PI 3-kinase alpha [10]; more than 9100 nM at Vps34. The “Assay M RLM CI(int)” value in [2] stood at 62 µL/min/mg.
Turning to `Cc1cc(-c2nc(-c3cc(S(=O)(=O)N[C@H]4CC[C@H](O)CC4)ccc3C)cnc2N)ccn1` [Example 135, 3-(5-Amino-6-(2-methylpyridin-4-yl)pyrazin-2-yl)-N-((1r,4r)-4-hydroxycyclohexyl)-4-methylbenzenesulfonamide], the IC50 on PI 3-kinase delta [8] came out at 9390 nM; on PI 3-kinase alpha [1], 180 nM; on PI 3-kinase gamma [3], 51 nM; at PI 3-kinase gamma [4], 63 nM; at PI 3-kinase delta [6] it was 1700 nM; at PI 3-kinase beta [9], 8750 nM. The concentration for half-maximal inhibition (IC50) on mTOR is 4370 nM; on PI 4-kinase beta it was 4160 nM; in [11], 359 nM; at PI 3-kinase beta [7], 5220 nM; on PI 3-kinase alpha [10], 7840 nM; at Vps34, more than 9550 nM. For the same compound, in [2], the “Assay M RLM CI(int)” value was 30 µL/min/mg.
Regarding `CCc1nnc(-c2nc(-c3cc(S(=O)(=O)N[C@H]4CC[C@H](O)CC4)ccc3C)cnc2N)o1` [Example 138, Trans-3-(5-Amino-6-(5-ethyl-1,3,4-oxadiazol-2-yl)pyrazin-2-yl)-N-((1r,4r)-4-hydroxycyclohexyl)-4-methylbenzenesulfonamide], the IC50 at PI 3-kinase delta [8] is 3550 nM; at PI 3-kinase alpha [1] it was 2700 nM; on PI 3-kinase gamma [3] it was 4 nM; at PI 3-kinase gamma [4], 260 nM; at PI 3-kinase delta [6] (read-out: Assay F PI3Kδ IC50), 860 nM; at PI 3-kinase beta [9], more than 10000 nM. For the same compound, the 50% inhibitory concentration (IC50) is more than 9100 nM on mTOR; 8540 nM on PI 4-kinase beta; 4830 nM in series [11]; more than 9100 nM on PI 3-kinase beta [7]; 8800 nM on PI 3-kinase alpha [10]; more than 9100 nM on Vps34. In [2], the “Assay M RLM CI(int)” value is 31 µL/min/mg.
With `CCCc1noc(-c2nc(-c3cc(S(=O)(=O)N[C@H]4CC[C@H](O)CC4)ccc3C)cnc2N)n1` [Example 140, Trans-3-[5-Amino-6-(3-propyl-[1,2,4]oxadiazol-5-yl)-pyrazin-2-yl]-N-(4-hydroxy-cyclohexyl)-4-methyl-benzene sulfonamide], the IC50 came out at 840 nM at PI 3-kinase delta [8]; 240 nM at PI 3-kinase alpha [1]; 16 nM at PI 3-kinase gamma [3]; 51 nM on PI 3-kinase gamma [4]; 90 nM on PI 3-kinase delta [6] (read-out: Assay F PI3Kδ IC50); 6380 nM on PI 3-kinase beta [9]. Besides, the IC50 is 8820 nM at mTOR; more than 9100 nM on PI 4-kinase beta; 817 nM in series [11]; 7160 nM at PI 3-kinase beta [7]; 1110 nM at PI 3-kinase alpha [10]; more than 9100 nM at Vps34. Also, the “Assay M RLM CI(int)” value in [2] is 82 µL/min/mg.
